Values of other authors as cited in patent publication US10017479B2, “Process to make non nucleosidal reverse transcriptase inhibitors (NNRTI) for the treatment of HIV” (priority 2013, dated 2018).

Legend:
[1] = system: wild type strains of HIV-1

SMILES: O=C(CSc1nnnn1-c1cccc2ccccc12)Nc1ccccc1[N+](=O)[O-] [compound 3, 2-((1-(naphthalen-1-yl)-1H-tetrazol-5-yl)thio)-N-(2-nitrophenyl)actetamid-e]
- activity against the wild type strains of HIV-1 [1]: nanomolar activity
- activity against the mutated strains of HIV-1 (mutated strains of HIV-1): nanomolar activity
